From US9427429B2, “Cancer diagnosis and imaging” (Tau Therapeutics LLC, priority 2010, dated 2016)

How the values were obtained:
Assay type in all cases: cell-based
A10 cells = test: Cell cycle analysis by flow cytometry and BUdR staining, with nocodazole block; conditions: for cell cycle arrest point: A10 cells treated 24 hours with T channel blocker before adding nocodazole, FIG. 3
Protocol: Cell cycle analysis was performed using flow cytometry and BUdR staining. In FIG. 3, “Con” represents untreated, control cells. All other cell cultures were treated with nocodazole, which interferes with microtubule polymerization and blocks the cell cycle during M phase. […] Therefore, cell cultures were treated for 24 hours with T channel calcium channel blockers mibefradil (mib), nickel (Ni) or TTL-1177 (a proprietary compound owned by the assignee Tau Therapeutics), before adding nocodazole.

[1] = test system: human lung cancer cells of cell line A549; test: Cell cycle progression after mibefradil incubation, A549
Protocol: (§1) To measure the efficacy of the cell cycle inhibitor mibefradil at stopping progression through the cell cycle, human lung cancer cells of cell line A549 and human prostate cancer cells of cell line were incubated with 10 μM mibefradil for 48 hours (M48H). […] Further data was collected by incubating the same cell lines with 10 μM of mibefradil for 18 hours followed by a 12 hour washout followed by another […] incubation with mibefradil (M18-12-18h).

[2] = test system: human prostate cancer cells; test: Cell cycle progression after mibefradil incubation, prostate cancer cells
Protocol: as §1

[3] = test system: human prostate cancer cells of cell line PC3; test: Effect of mibefradil on the cell cycle of PC3 cells; conditions: PC3, 5 μM or 10 μM for 24 hours or 48 hours; effect of increasing concentration and contact time; FIG. 5
Protocol: To measure the effect of mibefradil on the cell cycle of human prostate cancer cells of cell line PC3, PC3 cells were incubated with varying concentrations of mibefradil for varying times. The PC3 cells were incubated with either a 5 μM concentration or a 10 μM concentration for either 24 hours or 48 hours.

[4] = test system: Human colon cancer cells, cell line HT29; test: Uptake of imaging marker FDG after mibefradil, HT29; conditions: FDG 60 minutes after removal
Protocol: The efficacy of the uptake of imaging markers after treatment with a cell cycle inhibitor was determined. Human colon cancer cells, cell line HT29, were first incubated for 24 hours with the cell cycle inhibitor mibefradil at concentrations of 5 μM (5 uM-FDG-HT29) and 10 μM (10 uM-FDG-HT29). After 24 hours of incubation with the mibefradil, the HT29 cells were removed from mibefradil contact. After 60 minutes of being removed from mibefradil contact, the imaging marker 2-deoxy-2-(^18F)fluoro-D-glucose (hereinafter, “FDG”) was administered.
With a concentration of 10 μM of mibefradil, the increase in uptake of FDG was about 100% as compared to uptake of cells not incubated with mibefradil.

[5] = test system: human lung cancer cells of cell line A549; test: Uptake of imaging marker 3H-FDG after mibefradil, A549; conditions: 3H-FDG 30 minutes after removal
Protocol: (§2) The uptake of an imaging marker was also determined in human lung cancer cells of cell line A549. A549 cells were incubated with 5 μM, 10 μM and 15 μM concentrations of the cell cycle inhibitor mibefradil for 24 hours. After 24 hours of incubation with the mibefradil, the A549 cells were removed from mibefradil contact. After 30 minutes of being removed from mibefradil contact, the imaging marker tritiated FDG (hereinafter “3H-FDG”) was administered. […] Although not shown, incubation of human prostate cancer cells of the PC3 cell line with 10 μM mibefradil for 72 hours increased uptake of the subsequently introduced imaging marker 3H-FDG by about 60%.

[6] = test system: human prostate cancer cells of the PC3 cell line; test: Uptake of imaging marker 3H-FDG after mibefradil, PC3; conditions: PC3, 10 μM mibefradil for 72 hours; data not shown
Protocol: as §2

SMILES	cell cycle arrest point (A10 cells)	cell cycle block (A10 cells; A10 cells, nocodazole alone, flow cytometry)	proportion of cells in the G1 phase vs control ([1]; A549, 10 μM for 18 hours, 12 hour washout, another 8 hour incubation (M18-12-18h))	proportion of cells in the G1 phase ([1]; A549, 10 μM mibefradil for 48 hours (M48H), FIG. 4)	proportion of cells in the G1 phase vs control ([2]; 10 μM for 18 hours, 12 hour washout, another 8 hour incubation (M18-12-18h))	proportion of cells in the G1 phase ([2]; 10 μM mibefradil for 48 hours (M48H), FIG. 4)	proportion of cells in the G1 phase [3]	uptake of the imaging marker FDG vs cells not incubated ([4]; HT29, 5 μM and 10 μM mibefradil 24 hours, FIG. 6)	increase in uptake of FDG vs cells not incubated ([4]; HT29, 10 μM mibefradil 24 hours)	uptake of 3H-FDG ([5]; A549, 5 μM, 10 μM and 15 μM mibefradil 24 hours, FIG. 7)	mibefradil concentration of maximal 3H-FDG uptake ([5]; A549, 24 hours incubation, 5, 10, 15 μM tested)	increase in uptake of 3H-FDG [6]
[Ni] [nickel]	arrested cells at the cell cycle checkpoint between G0 and G1	–	–	–	–	–	–	–	–	–	–	–
COC(=O)Nc1nc2ccc(C(=O)c3cccs3)cc2[nH]1 [nocodazole]	–	blocked cell cycle transit through M phase	–	–	–	–	–	–	–	–	–	–
COCC(=O)O[C@]1(CCN(C)CCCc2nc3ccccc3[nH]2)CCc2cc(F)ccc2[C@@H]1C(C)C [mibefradil]	arrested cells at the cell cycle checkpoint between G0 and G1	–	greater proportion of cells in the G1 phase	increased the proportion of cells in the G1 phase	greater proportion of cells in the G1 phase	increased the proportion of cells in the G1 phase	increases the proportion of cells in the G1 phase	increased	about 100%	increase in uptake being observed at all concentrations	5 µM	about 60%
